# Laboratory results published in publication PMC9927415, “Tyrosine Kinase Inhibitors Display Potent Activity against Cryptosporidium parvum” (Microbiology Spectrum, 2022).
# Experiments:
# Test in all cases: KINOMEscan competitive binding, whole panel
# [1] = biological target: T1, panel of 203 kinases (Homo sapiens, UniProt P21709); conditions: 10 µM, n=1; kinase EPHA1; read-out: Percent inhibition EPHA1
# T1 construct: purchased DiscoverX (KINOMEscan)
# T1 sequence (P21709 26-976): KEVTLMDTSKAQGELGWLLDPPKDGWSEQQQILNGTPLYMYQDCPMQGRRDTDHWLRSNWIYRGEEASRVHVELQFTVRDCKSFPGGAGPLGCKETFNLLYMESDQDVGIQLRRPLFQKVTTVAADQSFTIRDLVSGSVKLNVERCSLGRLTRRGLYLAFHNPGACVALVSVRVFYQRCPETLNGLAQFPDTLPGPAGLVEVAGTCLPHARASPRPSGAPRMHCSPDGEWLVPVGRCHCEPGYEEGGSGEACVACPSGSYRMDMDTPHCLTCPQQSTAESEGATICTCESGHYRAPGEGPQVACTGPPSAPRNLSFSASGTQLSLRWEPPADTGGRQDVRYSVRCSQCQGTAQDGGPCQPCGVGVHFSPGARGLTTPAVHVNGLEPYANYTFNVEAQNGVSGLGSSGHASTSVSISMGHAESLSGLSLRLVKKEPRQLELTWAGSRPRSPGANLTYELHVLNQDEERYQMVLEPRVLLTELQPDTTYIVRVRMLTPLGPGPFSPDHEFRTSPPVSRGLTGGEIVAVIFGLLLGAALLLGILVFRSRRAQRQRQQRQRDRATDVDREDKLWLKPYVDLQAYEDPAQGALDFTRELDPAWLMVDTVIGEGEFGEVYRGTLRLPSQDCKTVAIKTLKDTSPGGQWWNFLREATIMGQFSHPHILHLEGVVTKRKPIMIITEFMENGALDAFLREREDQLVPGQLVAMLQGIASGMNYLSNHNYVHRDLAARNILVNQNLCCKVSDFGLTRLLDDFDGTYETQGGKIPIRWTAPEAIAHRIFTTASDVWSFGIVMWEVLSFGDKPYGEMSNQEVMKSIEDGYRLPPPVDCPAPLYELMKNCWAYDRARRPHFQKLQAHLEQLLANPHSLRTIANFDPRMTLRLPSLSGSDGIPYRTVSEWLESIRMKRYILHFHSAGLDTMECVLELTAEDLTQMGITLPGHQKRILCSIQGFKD
# Method in brief: (§1)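 First, kinases were produced as T7 bacteriophage fusion proteins. Then compounds were added to compete them off probe ligands immobilized on a solid support at the ATP site. Finally, bound kinase was measured and converted to percentage inhibition.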
# [2] = biological target: T2, panel of 203 kinases (Homo sapiens, UniProt P29322); conditions: 10 µM, n=1; kinase EPHA8; read-out: Percent inhibition EPHA8
# T2 construct: purchased DiscoverX (KINOMEscan)
# T2 sequence (P29322 28-1005): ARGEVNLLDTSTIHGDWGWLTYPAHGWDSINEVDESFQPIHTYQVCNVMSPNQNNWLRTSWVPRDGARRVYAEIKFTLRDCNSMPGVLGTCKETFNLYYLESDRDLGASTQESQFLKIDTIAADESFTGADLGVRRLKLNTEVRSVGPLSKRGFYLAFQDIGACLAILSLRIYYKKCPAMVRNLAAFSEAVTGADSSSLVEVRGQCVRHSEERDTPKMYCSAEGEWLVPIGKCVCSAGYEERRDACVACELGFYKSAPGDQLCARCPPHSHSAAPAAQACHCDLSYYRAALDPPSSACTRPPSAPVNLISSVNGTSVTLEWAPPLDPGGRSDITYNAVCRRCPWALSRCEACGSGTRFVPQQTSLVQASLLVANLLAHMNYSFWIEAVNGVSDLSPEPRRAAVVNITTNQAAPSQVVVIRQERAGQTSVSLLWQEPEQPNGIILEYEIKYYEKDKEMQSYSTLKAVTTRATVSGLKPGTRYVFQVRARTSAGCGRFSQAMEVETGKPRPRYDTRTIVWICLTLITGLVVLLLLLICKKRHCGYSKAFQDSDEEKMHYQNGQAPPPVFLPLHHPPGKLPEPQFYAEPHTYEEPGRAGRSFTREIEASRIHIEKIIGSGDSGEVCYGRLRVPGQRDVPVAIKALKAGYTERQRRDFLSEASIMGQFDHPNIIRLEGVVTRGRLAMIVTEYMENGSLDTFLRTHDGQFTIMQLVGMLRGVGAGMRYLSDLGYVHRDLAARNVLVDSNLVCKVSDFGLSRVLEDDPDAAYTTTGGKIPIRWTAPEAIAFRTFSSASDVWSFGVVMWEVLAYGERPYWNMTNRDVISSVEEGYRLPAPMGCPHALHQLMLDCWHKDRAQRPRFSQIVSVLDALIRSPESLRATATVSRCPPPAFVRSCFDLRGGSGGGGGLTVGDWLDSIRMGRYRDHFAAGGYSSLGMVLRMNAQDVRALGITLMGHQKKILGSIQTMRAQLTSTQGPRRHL
# Method in brief: as §1
# [3] = biological target: T3, panel of 203 kinases (Homo sapiens, UniProt Q04771); conditions: 10 µM, n=1; kinase ACVR1; read-out: Percent inhibition ACVR1
# T3 construct: purchased DiscoverX (KINOMEscan)
# T3 sequence (Q04771 21-509): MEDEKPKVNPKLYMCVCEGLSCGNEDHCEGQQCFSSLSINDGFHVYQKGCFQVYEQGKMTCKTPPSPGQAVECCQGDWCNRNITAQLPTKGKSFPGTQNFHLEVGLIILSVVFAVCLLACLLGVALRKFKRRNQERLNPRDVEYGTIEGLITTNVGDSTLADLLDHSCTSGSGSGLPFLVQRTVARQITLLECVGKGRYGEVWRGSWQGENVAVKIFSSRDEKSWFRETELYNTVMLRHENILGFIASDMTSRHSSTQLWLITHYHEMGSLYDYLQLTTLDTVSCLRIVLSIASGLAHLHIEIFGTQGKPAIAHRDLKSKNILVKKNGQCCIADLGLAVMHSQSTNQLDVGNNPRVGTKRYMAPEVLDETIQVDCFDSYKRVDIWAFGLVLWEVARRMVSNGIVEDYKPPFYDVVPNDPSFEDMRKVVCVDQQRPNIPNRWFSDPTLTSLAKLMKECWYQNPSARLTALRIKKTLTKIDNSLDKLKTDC
# Method in brief: as §1
Compound,inhibition at 10 µM [1],inhibition at 10 µM [2],inhibition at 10 µM [3]
CN1CCN(c2ccc(Nc3nccc(-c4cnn5ncccc45)n3)cc2C#N)CC1 [Compound 1],94.3%,0%,98.8%
COc1ccc(Nc2nccc(-c3cnn4ncccc34)n2)cc1 [Compound 2],92.5%,0%,92.1%
Cc1ccc(O)cc1Nc1ccnc(Nc2cccc(C(N)=O)c2)n1 [Compound 3],100%,100%,99.7%
Cc1ccc(O)cc1N(C)c1ccnc(Nc2cccc(S(N)(=O)=O)c2)n1 [Compound 4],100%,100%,99.9%
Fc1cccc(COc2ccc(Nc3ncnc4c3CN(CCN3CCOCC3)CC4)cc2Cl)c1 [Compound 6],0%,0%,0%
COc1cc(Nc2nccc(-c3sc(N)nc3-c3cccc(NC(=O)c4c(F)cccc4F)c3)n2)cc(OC)c1OC [Compound 7],100%,100%,0%
C[C@@H](Oc1cc(-c2cnc3ccccn23)sc1C(N)=O)c1ccccc1Cl [Compound 8],0%,0%,0%
c1ccc(COc2cccc(-c3ccnc4[nH]ccc34)c2)cc1 [Compound 9],0%,0%,0%
Clc1ccc(Nc2ncc(-c3ccccc3)s2)cc1 [Compound 10],0%,0%,0%
Nc1ncc2c(-c3ccncc3)c[nH]c2n1 [Compound 11],0%,0%,66.2%
